System: Blood
Assay: Ratio of compound IC50 to TXA IC50 in anti-fibrinolytic activity in healthy human fresh blood by plasma clot lysis
Type: functional

Row | Structure (SMILES) | Ratio IC50
1 | Cl.O=P(O)(O)c1ccc2c(n1)C(N1CCSCC1)CNC2 (mixture of isomers) | 0.21
2 | Cl.NC(=O)NC(=O)c1ccc2c(n1)CCNC2 | >10
3 | CCOP(=O)(O)c1ccc2c(n1)CCNC2.Cl | 0.29
4 | CC(C)(C)C[C@H]1C[C@@H](c2cc(=O)[nH]o2)CCN1.Cl | 0.15
5 | Cl.O=C(O)c1cnc2c(c1)CCNC2 | 2.16
6 | Cl.O=P(O)(c1ccccc1)c1ccc2c(n1)CCNC2 | 0.2
7 | Cl.O=P(O)(O)c1ccc2c(n1)C(N1CCOCC1)CNC2 (mixture of isomers) | 0.3
8 | CC(=O)NS(=O)(=O)c1ccc2c(n1)CCNC2.Cl | >10
9 | CCCC1Cc2nc(P(=O)(O)O)ccc2CN1.Cl (mixture of isomers) | 0.2
10 | Cl.O=C(O)c1nc2c([nH]1)CCNC2 | >10
11 | Cl.c1cc2c(nc1-c1nnn[nH]1)CCNC2 | 0.9
12 | Cl.O=P(O)(O)c1ccc2c(n1)CC(Cc1ccccc1)NC2 (mixture of isomers) | 0.75
13 | Cl.O=P(O)(CCc1ccccc1)c1ccc2c(n1)CCNC2 | 0.36
14 | CC(C)CC1Cc2nc(P(=O)(O)O)ccc2CN1.Cl (mixture of isomers) | 0.08
15 | CC(C)C1Cc2nc(P(=O)(O)O)ccc2CN1.Cl (mixture of isomers) | 0.14
16 | Cl.O=S(=O)(O)c1ccc2c(n1)CCNC2 | 0.93
17 | CCP(=O)(O)c1ccc2c(n1)CCNC2.Cl | 0.86
18 | Cl.O=C(O)c1cc2c(cn1)CNCC2 | 4.33
19 | Cl.O=P(O)(Cc1ccccc1)c1ccc2c(n1)CCNC2 | 1.29

— ChEMBL document CHEMBL6103656, “Discovery of BT-114143, a Novel and Potent Phosphoric Acid-Containing Small-Molecule Plasminogen Activation Inhibitor for Hyperfibrinolysis” (J Med Chem, 2025)
